Patent US9738648B2, “Pyridines, pyrimidines, and pyrazines, as BTK inhibitors and uses thereof” (Merck Patent GmbH, priority 2013, dated 2017)

How the values were obtained:
full-length human BTK = target: T1, full-length human BTK (Homo sapiens, UniProt Q06187); experiment: BTK IC50 Enzyme Assay (Assay A), microfluidic off-chip mobility shift kinase assay; type: biochemical; details: kinKDR peptide substrate, 90 min at 27° C.
T1 construct: 2.5× stocks of full-length human BTK (08-080) from CarnaBio USA, Inc; purchased CarnaBio USA, Inc., Natick, Mass; 08-080
T1 sequence (Q06187 whole entry): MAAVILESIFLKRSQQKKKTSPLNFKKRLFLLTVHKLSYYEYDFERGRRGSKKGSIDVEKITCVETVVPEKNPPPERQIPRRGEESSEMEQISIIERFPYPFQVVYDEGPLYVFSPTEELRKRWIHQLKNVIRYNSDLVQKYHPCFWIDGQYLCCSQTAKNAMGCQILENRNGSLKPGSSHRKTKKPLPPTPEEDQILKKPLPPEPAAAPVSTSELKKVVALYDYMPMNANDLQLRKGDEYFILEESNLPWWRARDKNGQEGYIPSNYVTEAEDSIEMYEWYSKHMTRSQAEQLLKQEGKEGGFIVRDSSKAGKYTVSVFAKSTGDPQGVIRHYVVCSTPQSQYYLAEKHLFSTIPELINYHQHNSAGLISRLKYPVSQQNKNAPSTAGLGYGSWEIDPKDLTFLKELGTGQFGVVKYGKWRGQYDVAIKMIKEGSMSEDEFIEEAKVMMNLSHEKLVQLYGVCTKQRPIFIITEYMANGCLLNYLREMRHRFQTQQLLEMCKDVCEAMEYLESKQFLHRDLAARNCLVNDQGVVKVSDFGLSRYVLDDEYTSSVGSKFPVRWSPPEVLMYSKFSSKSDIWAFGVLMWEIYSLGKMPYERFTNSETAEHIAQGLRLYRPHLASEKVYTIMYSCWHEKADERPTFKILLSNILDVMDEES
Experimental: BTK IC50 Enzyme Assay (Assay A)
The following describes a microfluidic, off-chip mobility shift kinase assay used to measure inherent potency of compounds against BTK enzyme.
2.5× stocks of full-length human BTK (08-080) from CarnaBio USA, Inc., Natick, Mass., 1.6×ATP and appropriate kinKDR peptide substrate (FITC-AHA-EEPLYWSFPAKKK10 NH2) were prepared in kinase reaction buffer consisting of 25 mM MgCl2, 0.015% Brij-35 (30%), 100 mM Hepes, pH 7.5, and 10 mM DTT.
5 uL of enzyme buffer and 7.5 uL of ATP/kinKDR peptide substrate mix were added to Matrix (#115304) 384-well, sterile, polypropylene plates (Thermo Fisher Scientific, 15 Hudson, N.H.) with 125 nL of serially diluted compounds prepared in 100% DMSO, and incubated for 90 min. at 27° C. Following the incubation period, reactions were stopped by adding 60 uL stop buffer consisting of 100 mM Hepes, pH 7.5, 0.015% Brij-35 (30%), 0.277% Coating Reagent #3 (Caliper Life Sciences, Mountain View, Calif.), 5% DMSO. Stopped reactions were monitored at −2 PSI, −3000 V/−700 V in a LabChip 3000 plate 20 reader from Caliper Life Sciences, a PerkinElmer Company (Hopkinton, Mass.), and the activity was measured by off-chip mobility shift assay measuring the charge/mass difference between substrate and product resulting from peptide phosphorilation. IC50 and efficacy were determined by plotting log [Inhibitor] vs. % Activity in GeneData Screener (Basel, Switzerland).

[1] = system: anti-IgM-induced expression of CD69 in freshly isolated human peripheral blood mononuclear cells (PBMCs); experiment: Assay B: inhibition of anti-IgM-induced expression of CD69 on CD19 positive cells (B cells) in human PBMCs; type: cell-based; details: PBMC, 1 h pre-treatment, overnight anti-human IgM stimulation, CD69 on CD19 positive cells by flow cytometry, read-out: Assay B (mol/L (M))
Experimental: Btk is critical for mediating the signalling of B cell antigen receptor (BCR) after anti-IgM stimulation. Based on this principle, a functional cell-based assay was established to determine the potency of compounds at inhibiting anti-IgM-induced expression of CD69, a downstream BCR signalling event, in freshly isolated human peripheral blood mononuclear cells (PBMCs). In the assay, a 90 μl PBMC suspension containing 2.5×10^5 cells was pre-treated with 10 μl of test compound at various concentrations for an hour, and then incubated overnight (approximately 16-18 hours) with 5 μl 420 μg/ml affiniPure F(ab′)2 fragment goat anti-human IgM Fc fragment per well (Dianova, Cat. No.: 109-006-129). After the incubation, the cells were washed and immunostained with an APC labelled mouse anti-human CD69 (BD Biosciences; clone: FN50), a PerCP-Cy5.5 labelled mouse anti-human CD19 (BD Biosciences; clone: SJ25C1) and a FITC-labelled mouse anti-human CD3 (BD Biosciences; clone: HIT3a), and fixed for flow cytometric analysis of CD69 expression on CD19 positive cells (B cells). The percentage of CD69 expressing CD19 positive cells was plotted against the concentrations of test compounds to obtain a concentration response curve, and calculate an IC50 value as a measure of the potency of test compounds in the assay.

| IC50 (full-length human BTK) | SMILES | IC50 [1] |
| --- | --- | --- |
| < 100 nM | C=CC(=O)N1CC(n2ccc3ncnc(Oc4ccc(Oc5ccccc5)cc4)c32)C1 [Compound 3, 1-(3-(4-(4-phenoxyphenoxy)-5H-pyrrolo[3,2-d]pyrimidin-5-yl)azetidin-1-yl)prop-2-en-1-one] | < 1e-07 M |
| < 100 nM | C=CC(=O)N[C@H]1C[C@@H](n2ccc3ncnc(Oc4ccc(Oc5ccccc5)cc4)c32)C1 [Compound 10, N-(cis-3-(4-(4-phenoxyphenoxy)-5H-pyrrolo[3,2-d]pyrimidin-5-yl)cyclobutyl)acrylamide] | 1e-07 to 1e-06 M |
| < 100 nM | CN(C)C/C=C/C(=O)N1CC(n2ccc3ncc(-c4ccc(Oc5ccccc5)cc4)cc32)C1 [Compound 13, (E)-4-(dimethylamino)-1-(3-(6-(4-phenoxyphenyl)-1H-pyrrolo[3,2-b]pyridin-1-yl)azetidin-1-yl)but-2-en-1-one] | 1e-07 to 1e-06 M |
| < 100 nM | O=C(CCCCCNc1ccc([N+](=O)[O-])c2nonc12)NCCN1CCN(C/C=C/C(=O)N2CC(n3ccc4ncnc(Oc5ccc(Oc6ccccc6)cc5)c43)C2)CC1 [Compound 31, (E)-6-((7-nitrobenzo[c][1,2,5]oxadiazol-4-yl)amino)-N-(2-(4-(4-oxo-4-(3-(4-(4-phenoxyphenoxy)-5H-pyrrolo[3,2-d]pyrimidin-5-yl)azetidin-1-yl)but-2-en-1-yl)piperazin-1-yl)ethyl)hexanamide] | 1e-06 to 5e-06 M |
| < 100 nM | N#CN1CCC(n2ccc3ncnc(Oc4ccc(Oc5ccccc5)cc4)c32)C1 (stereo not shown) [Compound 60, 3-[4-(4-phenoxyphenoxy)-5H-pyrrolo[3,2-d]pyrimidin-5-yl]pyrrolidine-1-carbonitrile] | 1e-07 to 1e-06 M |
| < 100 nM | N#CN1CC[C@H](n2ccc3ncnc(Oc4ccc(Oc5ccccc5)cc4)c32)C1 [Compound 72, (3S)-3-[4-(4-phenoxyphenoxy)-5H-pyrrolo[3,2-d]pyrimidin-5-yl]pyrrolidine-1-carbonitrile] | 1e-07 to 1e-06 M |
| < 100 nM | NCCOCCOCCOCCOCCC(=O)NCCN1CCN(C/C=C/C(=O)N2CCC(n3ccc4ncnc(Oc5ccc(Oc6ccccc6)cc5)c43)CC2)CC1 [Compound 73, (E)-1-amino-N-(2-(4-(4-oxo-4-(4-(4-(4-phenoxyphenoxy)-5H-pyrrolo[3,2-d]pyrimidin-5-yl)piperidin-1-yl)but-2-en-1-yl)piperazin-1-yl)ethyl)-3,6,9,12-tetraoxapentadecan-15-amide] |  |
| 100 to 1000 nM | CC1=CC(C)=[N+]2C1=C(c1ccc(NC(=S)NCCOCCOCCOCCOCCC(=O)NCCN3CCN(C/C=C/C(=O)N4CCC(n5ccc6ncnc(Oc7ccc(Oc8ccccc8)cc7)c65)CC4)CC3)cc1)c1c(C)cc(C)n1[B-]2(F)F [Compound 74, (E)-1-((4-(5,5-difluoro-1,3,7,9-tetramethyl-5H-414,514-dipyrrolo[1,2-c:2′,1′-f][1,3,2]diazaborinin-10-yl)phenyl)amino)-N-(2-(4-(4-oxo-4-(4-(4-(4-phenoxyphenoxy)-5H-pyrrolo[3,2-d]pyrimidin-5-yl)piperidin-1-yl)but-2-en-1-yl)piperazin-1-yl)ethyl)-1-thioxo-5,8,11,14-tetraoxa-2-azaheptadecan-17-amide] |  |
| > 5000 nM | N#CN1CC[C@@H](n2ccc3ncnc(Oc4ccc(Oc5ccc(F)cc5F)cc4)c32)C1 [Compound 75] |  |
| 100 to 1000 nM | N#CN1CC[C@H](n2ccc3ncnc(Oc4ccc(Oc5ccc(F)cc5F)cc4)c32)C1 [Compound 76] |  |
